Measured values from ChEMBL document CHEMBL3272271, “Folate antagonists. 13. 2,4-Diamino-6-](alpha,alpha,alpha-trifluoro-m-tolyl)thio]quinazoline and related 2,4-diamino-6-[(phenyl- and naphthyl)thio]quinazolines, a unique class of antimetabolites with extraordinary antimalarial and antibacterial effects” (J Med Chem, 1978).
Converted amounts (≈) assume the structure as drawn. The source made the active and inactive calls. The rule behind the calls is not given here.

How the values were obtained:
Plasmodium gallinaceum [1] = assay: Antimalarial activity against trophozoite-induced Plasmodium gallinaceum infected in white leghorn chicken assessed as increase in mean survival days of host at 40 mg/kg, sc administered 72 hrs after infection relative to control; assay type: functional; conditions: route subcutaneous
Plasmodium berghei [2] = assay: Antimalarial activity against Plasmodium berghei infected in mouse assessed as increase in mean survival days of host at 10 mg/kg, sc administered 72 hrs after infection relative to control; assay type: functional; conditions: route subcutaneous
Plasmodium berghei [3] = assay: Antimalarial activity against Plasmodium berghei infected in mouse assessed as disease cure from parasite infection at 160 mg/kg, sc administered 72 hrs after infection; assay type: functional, organism-based; design: dose 160 mg/kg
Gallus gallus [4] = assay: Toxicity in sporozoite-induced Plasmodium gallinaceum infected white leghorn chicken assessed as mortality at 80 mg/kg, sc administered 72 hrs after infection measured up to 6 days; assay type: organism-based; design: dose 80 mg/kg, route subcutaneous; conditions: in vivo
Plasmodium gallinaceum [5] = assay: Antimalarial activity against sporozoite-induced Plasmodium gallinaceum infected in white leghorn chicken assessed as increase in mean survival days of host at 40 mg/kg, sc administered 72 hrs after infection relative to control; assay type: functional; conditions: route subcutaneous
Enterococcus faecalis = assay: Antibacterial activity against Streptococcus faecalis MGH-2 by gradient plate test; assay type: functional
Plasmodium gallinaceum [6] = assay: Antimalarial activity against trophozoite-induced Plasmodium gallinaceum infected in white leghorn chicken assessed as increase in mean survival days of host at 2.5 mg/kg, sc administered 72 hrs after infection relative to control; assay type: functional; conditions: route subcutaneous
Plasmodium berghei [7] = assay: Antimalarial activity against Plasmodium berghei infected in mouse assessed as increase in mean survival days of host at 40 mg/kg, sc administered 72 hrs after infection relative to control; assay type: functional; conditions: route subcutaneous
Plasmodium gallinaceum [8] = assay: Antimalarial activity against trophozoite-induced Plasmodium gallinaceum infected in white leghorn chicken assessed as increase in mean survival days of host at 20 mg/kg, sc administered 72 hrs after infection relative to control; assay type: functional; conditions: route subcutaneous
Plasmodium gallinaceum [9] = assay: Antimalarial activity against trophozoite-induced Plasmodium gallinaceum infected in white leghorn chicken assessed as increase in mean survival days of host at 5 mg/kg, sc administered 72 hrs after infection relative to control; assay type: functional; conditions: route subcutaneous
Plasmodium gallinaceum [10] = assay: Antimalarial activity against sporozoite-induced Plasmodium gallinaceum infected in white leghorn chicken assessed as increase in mean survival days of host at 80 mg/kg, sc administered 72 hrs after infection relative to control; assay type: functional; conditions: route subcutaneous
Plasmodium gallinaceum [11] = assay: Antimalarial activity against trophozoite-induced Plasmodium gallinaceum infected in white leghorn chicken assessed as increase in mean survival days of host at 1.25 mg/kg, sc administered 72 hrs after infection relative to control; assay type: functional; conditions: route subcutaneous
Plasmodium gallinaceum [12] = assay: Antimalarial activity against sporozoite-induced Plasmodium gallinaceum infected in white leghorn chicken assessed as disease cure from parasite infection at 20 mg/kg, sc administered 72 hrs after infection; assay type: functional, organism-based; design: dose 20 mg/kg
Plasmodium gallinaceum [13] = assay: Antimalarial activity against sporozoite-induced Plasmodium gallinaceum infected in white leghorn chicken assessed as disease cure from parasite infection at 80 mg/kg, sc administered 72 hrs after infection; assay type: functional, organism-based; design: dose 80 mg/kg
Plasmodium berghei [14] = assay: Ratio of quinine hydrochloride SD90 to compound SD90 for trophozoite-induced Plasmodium berghei infected in mouse assessed as daily dose required to suppression of 90% parasite infection administered with diet for 6 days; assay type: functional
Plasmodium gallinaceum [15] = assay: Antimalarial activity against trophozoite-induced Plasmodium gallinaceum infected in white leghorn chicken assessed as increase in mean survival days of host at 160 mg/kg, sc administered 72 hrs after infection relative to control; assay type: functional; conditions: route subcutaneous
Plasmodium gallinaceum [16] = assay: Antimalarial activity against trophozoite-induced Plasmodium gallinaceum infected in white leghorn chicken assessed as increase in mean survival days of host at 80 mg/kg, sc administered 72 hrs after infection relative to control; assay type: functional; conditions: route subcutaneous
Plasmodium berghei [17] = assay: Antimalarial activity against trophozoite-induced Plasmodium berghei infected in mouse assessed as daily dose required to suppression of 90% parasite infection administered with diet for 6 days; assay type: functional
Plasmodium berghei [18] = assay: Antimalarial activity against Plasmodium berghei infected in mouse assessed as increase in mean survival days of host at 160 mg/kg, sc administered 72 hrs after infection relative to control; assay type: functional; conditions: route subcutaneous
Gallus gallus [19] = assay: Toxicity in trophozoite-induced Plasmodium gallinaceum infected white leghorn chicken assessed as mortality at 320 mg/kg, sc administered 72 hrs after infection measured after 48 hrs; assay type: organism-based; design: dose 320 mg/kg, route subcutaneous; conditions: in vivo
Plasmodium gallinaceum [20] = assay: Antimalarial activity against sporozoite-induced Plasmodium gallinaceum infected in white leghorn chicken assessed as increase in mean survival days of host at 20 mg/kg, sc administered 72 hrs after infection relative to control; assay type: functional; conditions: route subcutaneous
Plasmodium berghei [21] = assay: Antimalarial activity against Plasmodium berghei infected in mouse assessed as increase in mean survival days of host at 80 mg/kg, sc administered 72 hrs after infection relative to control; assay type: functional; conditions: route subcutaneous
Escherichia coli = assay: Antibacterial activity against Escherichia coli Vogel by gradient plate test; assay type: functional
Plasmodium gallinaceum [22] = assay: Antimalarial activity against trophozoite-induced Plasmodium gallinaceum infected in white leghorn chicken assessed as disease cure from parasite infection at 160 mg/kg, sc administered 72 hrs after infection; assay type: functional, organism-based; design: dose 160 mg/kg
Staphylococcus aureus [23] = assay: Antibacterial activity against drug-resistant Staphylococcus aureus S18713 by gradient plate test; assay type: functional
Plasmodium gallinaceum [24] = assay: Antimalarial activity against trophozoite-induced Plasmodium gallinaceum infected in white leghorn chicken assessed as increase in mean survival days of host at 0.63 mg/kg, sc administered 72 hrs after infection relative to control; assay type: functional; conditions: route subcutaneous
Plasmodium berghei [25] = assay: Antimalarial activity against Plasmodium berghei infected in mouse assessed as disease cure from parasite infection at 320 mg/kg, sc administered 72 hrs after infection; assay type: functional, organism-based; design: dose 320 mg/kg
Plasmodium gallinaceum [26] = assay: Antimalarial activity against sporozoite-induced Plasmodium gallinaceum infected in white leghorn chicken assessed as disease cure from parasite infection at 160 mg/kg, sc administered 72 hrs after infection; assay type: functional, organism-based; design: dose 160 mg/kg
Plasmodium berghei [27] = assay: Antimalarial activity against Plasmodium berghei infected in mouse assessed as increase in mean survival days of host at 20 mg/kg, sc administered 72 hrs after infection relative to control; assay type: functional; conditions: route subcutaneous
Plasmodium gallinaceum [28] = assay: Antimalarial activity against sporozoite-induced Plasmodium gallinaceum infected in white leghorn chicken assessed as disease cure from parasite infection at 40 mg/kg, sc administered 72 hrs after infection; assay type: functional, organism-based; design: dose 40 mg/kg
Plasmodium gallinaceum [29] = assay: Antimalarial activity against trophozoite-induced Plasmodium gallinaceum infected in white leghorn chicken assessed as increase in mean survival days of host at 10 mg/kg, sc administered 72 hrs after infection relative to control; assay type: functional; conditions: route subcutaneous
Mus musculus = assay: Toxicity in Plasmodium berghei infected mouse assessed as mortality at 640 mg/kg, sc administered 72 hrs after infection measured after 2 to 5 days; assay type: organism-based; design: dose 640 mg/kg, route subcutaneous; conditions: in vivo
Plasmodium gallinaceum [30] = assay: Antimalarial activity against sporozoite-induced Plasmodium gallinaceum infected in white leghorn chicken assessed as increase in mean survival days of host at 10 mg/kg, sc administered 72 hrs after infection relative to control; assay type: functional; conditions: route subcutaneous
Gallus gallus [31] = assay: Toxicity in sporozoite-induced Plasmodium gallinaceum infected white leghorn chicken assessed as mortality at 160 mg/kg, sc administered 72 hrs after infection measured up to 6 days; assay type: organism-based; design: dose 160 mg/kg, route subcutaneous; conditions: in vivo
Staphylococcus aureus [32] = assay: Antibacterial activity against Staphylococcus aureus UC-96 by gradient plate test; assay type: functional
Pseudomonas aeruginosa = assay: Antibacterial activity against Pseudomonas aeruginosa 28 by gradient plate test; assay type: functional
Plasmodium gallinaceum [33] = assay: Antimalarial activity against sporozoite-induced Plasmodium gallinaceum infected in white leghorn chicken assessed as disease cure from parasite infection at 320 mg/kg, sc administered 72 hrs after infection; assay type: functional, organism-based; design: dose 320 mg/kg
Plasmodium gallinaceum [34] = assay: Antimalarial activity against sporozoite-induced Plasmodium gallinaceum infected in white leghorn chicken assessed as increase in mean survival days of host at 5 mg/kg, sc administered 72 hrs after infection relative to control; assay type: functional; conditions: route subcutaneous
Gallus gallus [35] = assay: Toxicity in sporozoite-induced Plasmodium gallinaceum infected white leghorn chicken assessed as mortality at 320 mg/kg, sc administered 72 hrs after infection measured up to 6 days; assay type: organism-based; design: dose 320 mg/kg, route subcutaneous; conditions: in vivo
Shigella sonnei = assay: Antibacterial activity against Shigella sonnei C-10 by gradient plate test; assay type: functional
Plasmodium berghei [36] = assay: Antimalarial activity against Plasmodium berghei infected in mouse assessed as disease cure from parasite infection at 640 mg/kg, sc administered 72 hrs after infection; assay type: functional, organism-based; design: dose 640 mg/kg

Cc1cccc(Sc2ccc3nc(N)nc(N)c3c2)c1
MST (Plasmodium gallinaceum [1]): 6.4 days | MST (Plasmodium berghei [2]): 2.4 days | Activity (Plasmodium berghei [3]): Active | Activity (Gallus gallus [4]): Toxic | MST (Plasmodium gallinaceum [5]): 1.7 days | MIC (Enterococcus faecalis): < 0.25 µg/mL | MST (Plasmodium gallinaceum [6]): 0 days | MST (Plasmodium berghei [7]): 6.7 days | MST (Plasmodium gallinaceum [8]): 6.2 days | MST (Plasmodium gallinaceum [9]): 0 days | MST (Plasmodium gallinaceum [10]): 4.7 days | MST (Plasmodium gallinaceum [11]): 0 days | Activity (Plasmodium gallinaceum [12]): Active | Activity (Plasmodium gallinaceum [13]): Active | Ratio (Plasmodium berghei [14]): 12 | MST (Plasmodium gallinaceum [15]): 10.7 days | MST (Plasmodium gallinaceum [16]): 7.8 days | SD90 (Plasmodium berghei [17]): 6.2 mg/kg/day | MST (Plasmodium berghei [18]): 12.7 days | Activity (Gallus gallus [19]): Toxic | MST (Plasmodium gallinaceum [20]): 3.8 days | MST (Plasmodium berghei [21]): 7.7 days | MIC (Escherichia coli): < 0.25 µg/mL | Activity (Plasmodium gallinaceum [22]): Active | MIC (Staphylococcus aureus [23]): < 0.25 µg/mL | MST (Plasmodium gallinaceum [24]): 0 days | Activity (Plasmodium berghei [25]): Active | Activity (Plasmodium gallinaceum [26]): Active | MST (Plasmodium berghei [27]): 2.3 days | Activity (Plasmodium gallinaceum [28]): Active | MST (Plasmodium gallinaceum [29]): 6 days | Activity (Mus musculus): Toxic | MST (Plasmodium gallinaceum [30]): 1.8 days | Activity (Gallus gallus [31]): Toxic | MIC (Staphylococcus aureus [32]): < 0.25 µg/mL | MIC (Pseudomonas aeruginosa): > 25 µg/mL | Activity (Plasmodium gallinaceum [33]): Active | MST (Plasmodium gallinaceum [34]): 0.3 days | Activity (Gallus gallus [35]): Toxic | MIC (Shigella sonnei): 1.5 µg/mL (≈ 5.31 µM) | Activity (Plasmodium berghei [36]): Active
